Measured values from patent US7790896B2, “RNA-selective probes for live cell imaging of nuclear structure and function” (New York University, priority 2006, dated 2010).

Columns and labels:
[1] = system: RNA (Type VI from torula yeast); test: In vitro solution assay (primary screening): fluorescent emission fold change upon binding to RNA; settings: dye 10 μM, RNA 500 μg/mL in TE buffer
Experimental: (§1) The fluorescence spectra data in the primary screening and selected dyes titration assay study was obtained by Gemini XS plate reader. RNA solution was prepared right before the assay experiments to avoid possible degradation and contamination. In the primary screening, 1 mg/mL RNA (type VI from torula yeast) buffer solution was used. Point scans were carried out first using five Ex/Em point sets ([…], 400/500, 450/550, 500/600, 550/650 nm). Spectra scans were then carried out for the selected dyes. Excitation wavelengths were set at 350 nm, 400 nm, 450 nm, 500 nm, and 550 nm and the emission wavelengths were scanned. RNA (16S- and 23S-ribosomal from E. coli) and DNA (salmon testes) titration experiments and quantum yield/extinction coefficient determination for the three best dyes were carried out by the plate reader as well. Excitation λmax obtained from F-2500 Hitachi Fluorophotometer was used. Absorbance wavelength was determined by SpectraMax Plus^384 absorbance plate reader. […] was chosen as standard and 480 nm was used as excitation wavelength in the scanning for quantum yield determination.
The screening strategy used in this study is illustrated in FIG. 2. Both in vitro RNA assays and live cell imaging methods were utilized in the primary screening of the dye library. Selective binding of the dye to RNA in solution was the primary criterion for selecting lead compounds for subsequent bioimaging studies, Herein, the library dyes' fluorescent emission intensity fold change upon binding to RNA was measured in solution. Dyes showing five-fold or higher emission changes in the presence of RNA were selected (Table 3). Note the dyes listed are identified by the building blocks I and II from Table 2. For example, A4 is the product made by reacting compound A from the list of Building block I and compound 4 from the list of Building block II.

A549 = test: Phototoxicity test, MTS assay of irradiated cells; format: cell-based, human; settings: dye 5 μM, irradiated 5 minutes, 24 hours incubation
Experimental: Dye DMSO stock solutions were diluted by fresh medium into working concentration (5 μM). Cells were cultured in 96-well plate for 12 hours before experiments. The cell medium was exchanged with dye medium solutions. Cells were then incubated in at 37° C., in 5% CO2 for 25 minutes before being irradiated by fluorescent light using the appropriate working filter (FITC for E36 and E144; Cy3 for F22) for 5 minutes. The plates were then incubated at 37° C. in 5% CO2 The cell viability was measured by MTS assay after 5 and 24 hours following the cytotoxicity measurement procedure. Duplicated experiments have been tested.
Phototoxicity is also an important factor in evaluating applicability of new fluorescent probes for live cell imaging. […] Nevertheless, it is desirable for the new imaging probes to be as non-phototoxic as possible. To investigate the phototoxicity of the present RNA-selective compounds, cellular viability of irradiated cells using MTS assay was assessed. Cells were incubated with dyes (E36, E144, and F22) in their working concentration (5 μM), and then irradiated with the appropriate filters using the fluorescent microscope (FITC for E36 and E144; Cy3 for F22). While light exposures used for imaging experiments are generally a few seconds long at most, cells were irradiated for 5 minutes for prolonged toxicity measurement. […]

3T3 cells = test: Live cell staining working concentration in 3T3 cells; format: cell-based, mouse
Experimental: All cell staining imaging followed the same procedure. Generally, dyes in dry state were first dissolved in DMSO to obtain the stock solution. The stock solutions were then added directly to the cell culture wells to reach the desired concentration. Total DMSO was lower than 0.1%. After adding dyes, cells were incubated at 37° C. in 5% CO2 for 25 minutes. The medium was then removed and cells were rinsed with fresh medium twice. The cells were then imaged at ambient temperature in the medium. Exposure time was kept less than 5 seconds and adjusted to each dye.
In fluorescence microscopic imaging studies, it is always desirable to use as little dye as possible to stain organelles in order to maximize specificity and minimize dye toxicity and cell death. To determine the lowest working concentration of each dye, four different concentrations (20 μM, 10 μM, 5 μM, and 1 μM) were tested in four cell lines (Hela, A549, 3T3, and 3T3-L1). Dyes E36, E144, and F112 were imaged using FITC channel, and F22 was imaged using Cy3 channel. Generally, a quality fluorescence signal for each dye was produced using a concentration of 5 μM for E36, E144, and F22 and 10 μM for F112 (Table 5). It was interesting to observe that compound F22 was brighter in 3T3 cells, and a concentration of 1 μM was sufficient for a clear image (FIG. 4). […]

[2] = system: Hela, A549, 3T3, and 3T3-L1 cells; test: Dye cell-tolerability: cell viability and morphology changes observed; format: cell-based, human, mouse; settings: 20 μM, after 8 hours
Experimental: Low cytotoxicity is one of the most important criteria for live cell imaging probes. All four compounds were tested at 20 μM, 10 μM, 5 μM, and 1 μM in Hela, A549, 3T3, and 3T3-L1 cells. Cell viability and morphology changes were observed during 2, 8, and 24 hours. Only dye E36 was toxic to A549, 3T3, and 3T3-L1 cells at high concentration (20 μM) after 8 hours.

[3] = Fluorescence spectrum in TE buffer of dyes selected from live cell imaging; format: physicochemical; settings: dye 10 μM in TE buffer
Experimental: as §1

| SMILES | Em(nm) [1] | Ex(nm) [1] | Fold (fluorescent emission fold changes to RNA) [1] | Phototoxicity (A549) | Concentration sufficient for a clear image (3T3 cells) | Toxicity (cell viability and morphology changes) [2] | SPECTRUM EM [3] | SPECTRUM EX [3] |
| --- | --- | --- | --- | --- | --- | --- | --- | --- |
| COc1ccc2c(ccc(/C=C/c3ccc(N(C)C)cc3)[n+]2C)c1 [Dye F22] | 640 nm | 500 nm | 23 | not A549 | 1 µM |  |  |  |
| COc1cc(OC)c(/C=C/c2ccc3ccccc3[n+]2C)c(OC)c1 [Dye E144] | 540 nm | 450 nm | 5 |  |  |  |  |  |
| C[n+]1c(/C=C/c2c[nH]c3ccccc23)ccc2ccccc21 [Dye E36] |  |  |  |  |  | toxic | 550 nm | 450 nm |
